Columns and labels:
DPPH radical assay = assay: DPPH radical assay
Method: The DPPH assay was one of three electron transfer (ET) assays used to determine the antioxidant potential of compound 1 (described in Example 6) in comparison to its monomeric counterpart (syringaldehyde) as well as popular antioxidants. In an ET assay, an antioxidant donates electron(s) to a molecular probe, thus reducing it. From the assay, thermodynamic conversion of antioxidant to antioxidant radical (oxidation) is measured during a fixed time period.
The reduction of DPPH radical was determined for ascorbic acid, Trolox, syringaldehyde, and the compound 1 described in Example 6 as previously reported (Brand-Williams, et al. Lebensm.-Wiss U.-Technol. 1995, 28, 25-30, incorporated herein by reference in its entirety). In the DPPH assay, DPPH• radical was reduced by the antioxidant in methanol (Brand-Williams, et al. Lebensm.-Wiss U.-Technol. 1995, 28, 25-30, incorporated herein by reference in its entirety). […] The DPPH reagent was made in methanol. Antioxidant sample (10 μL) was added to 1.0 mL of reagent and the absorbance was monitored at 515 nm until a plateau was reached. Antioxidant concentrations were 50 μM syringaldehyde, 12.5 μM Trolox and ascorbic acid, and 5 μM compound 1. All samples were made in methanol and run in triplicates at room temperature.
The DPPH• scavenging capacity of each antioxidant was evaluated from the plot of the percentage DPPH• remaining when the kinetics reached a steady state as a function of the molar ratios of antioxidant to DPPH•. […] Using the curve, EC50 (the amount of antioxidant necessary to decrease the initial DPPH• concentration by 50%), antiradical power (1/EC50, ability to reduce the DPPH•), reaction stoichiometry (EC50×2, the concentration of antioxidant required to reduce 100% of DPPH• radical), and the number of reduced DPPH• per antioxidant molecule (1/stoichiometry) for each antioxidant were calculated as previously described (Brand-Williams, et al. Lebensm.-Wiss U.-Technol. 1995, 28, 25-30, incorporated herein by reference in its entirety) and are depicted in Table 1.
Antioxidant capacity of the compounds was assessed by the DPPH assay (Brand-Williams, et al. Lebensm. Wiss. Technol. 1995, 28, 25, incorporated herein by reference in its entirety). […] In FIG. 22, control with methanol is (X, dashed); compound 1 is (□), compound 2 is (•), compound 3 is (◯), and Trolox (Δ). All antioxidant concentrations were 5 μM.
The free-radical scavenging ability of the antioxidants was evaluated by the DPPH assay, as described above in Example 7.

[1] = ABTS radical cation decolorization assay; format: biochemical
Description: We have tested AO activity of G1 (13) using ABTS as a radical source using a previously reported spectroscopic assay. The AO activity of the G1 (13) was compared to those of syringaldehyde, gallic acid, and vitamin C. If the phenolic OH group is the radical scavenging site, the expected AO activity of the G1 (13) should be 4 fold higher than that of syringaldehyde and 1.3 fold higher than that of gallic acid (which has three phenolic OH groups).
ABTS radical cation decolorization assay was used as previously described (Ozgen, et al. J. Agric. Food Chem. 2006, 54, 1151-1157, incorporated herein by reference in its entirety). Like the DPPH assay, this was also a decolorization assay and measured absorbance decrease at 734 nm as the ABTS radical (ABTS•+) is quenched by the antioxidant. The solvent used for the assay was ethanol. ABTS reagent was added to 1.0 mL solvent in a cuvet to bring the absorbance to 0.7. A 10 μL sample of antioxidant was then added, mixed, and the absorbance monitored at 734 nm for 6 min. Antioxidant concentrations were 14.4 μM Trolox, 11.4 μM ascorbic acid, 15.4 μM syringaldehyde, and 3 μM compound 1. The % decrease in absorbance at 6 min was plotted against antioxidant concentrations. The gradient of the line obtained by linear regression for a given antioxidant was divided by that obtained for Trolox to yield Trolox equivalent antioxidant (TEAC) values. All samples were made in ethanol and run in triplicates and at room temperature.

[2] = FRAP assay (reduction of Fe(III) to Fe(II)); format: biochemical; set-up: Slope of ΔA593 versus concentration: unit not given here; settings: for Slope of ΔA593 versus concentration: 37° C.
Method: The FRAP assay was performed as previously described (Pulido, et al. J. Agric. Food Chem. 2000, 48, 3396-3402, incorporated herein by reference in its entirety). In the FRAP assay, ferric was reduced by the antioxidant to ferrous via electron transfer (Benzie et al., Anal. Biochem. 1996, 239, 70-76, incorporated herein by reference in its entirety). This assay measured the redox potential of an antioxidant which is used as an estimate of antioxidant efficiency and expressed as a FRAP value. […] The compound 1 as well as the other antioxidants was dissolved in methanol. […] Reaction kinetics of the compound 1 and other antioxidants were obtained by plotting the change in slopes at various times and are shown in FIG. 18. […] This time-dependent increase in absorbance was previously reported (Pulido, et al. J. Agric. Food Chem. 2000, 48, 3396-3402, incorporated herein by reference in its entirety) and was especially significant with polyphenolic compounds. […] However, the FRAP value increased with time, reaching 2.5 in 60 min. […] J. Agric. Food Chem. 2000, 48, 3396-3402, incorporated herein by reference in its entirety). […] EC1 values, and therefore ferric reducing ability, were lower at longer reaction times as expected from the kinetic behavior of the antioxidants (Pulido, et al. J. Agric. Food Chem. 2000, 48, 3396-3402, incorporated herein by reference in its entirety).

[3] = Brand-Williams et al.; cited from earlier work
Human LDL = assay: Protection of LDL from AAPH oxidation (agarose gel electrophoresis); format: biochemical; settings: 1-30 μM, 20 mM AAPH, 21 h, 37° C.
Description: The antioxidant activity of compounds 1, 2, and 3 towards biomolecules was examined by studying their ability to protect LDL, fatty acid, and DNA from free radicals. For LDL, AAPH was used to induce free radical damage. AAPH was used instead of copper (Cu^2) ion for LDL oxidation so that the free radical scavenging activity of the antioxidants could be measured without any pro-oxidant interference caused by metal ions (Salah, N. et al. Arch. Biochem. Biophys. 1995, 322, 339, incorporated herein by reference in its entirety). All solutions were made in ultra-pure water.
Protection of LDL from AAPH free radicals by the antioxidant decreased the anodic shift in a dose-dependent manner (FIG. 23). […] The increased hydrophobicity of compound 3 may be partly responsible for its improved LDL protection over compound 2.
The antioxidant activity of the antioxidants towards biomolecules was examined by studying their ability to protect LDL, lysozyme, and DNA from free radicals. For LDL, AAPH was used to induce free radical damage. AAPH was used instead of Cu^2+ for LDL oxidation so that the free radical scavenging activity of the antioxidants could be measured without any pro-oxidant interference caused by metal ions. The oxidation of human low-density lipoprotein was used as a model for evaluating the ability of the G1 dendrimers as chain-breaking antioxidants for lipid. Oxidation of LDL leads to changes in both the lipid and the protein moieties of the lipoprotein particle. Lipid peroxidation in LDL has been evaluated by a variety of methods. Due to the complexity of events that occur in lipoprotein oxidation, the electrophoretic migration pattern of oxidized LDL is one of the best methods to evaluate the extent of lipoprotein oxidation. LDL was incubated with 20 mM AAPH and increasing concentrations of the G1 dendrimers (0-37 μM in PBS) for 21 h at 37° C. The mixture was then subjected to agarose gel electrophoresis using the Ciba Corning Clinical Electrophoresis System. The agarose gel was stained with Fat Red 7B. In FIG. 30A (top), lane 1 is native LDL, and lanes 2-8 are AAPH-oxidized LDL with 0, 37, 18.5, 9, 4.5, 2 and 1 μM compound 4, respectively. In FIG. 30B (bottom), lane 1 is native LDL, and lanes 2-8 are AAPH-oxidized LDL with 0, 37, 18.5, 9, 4.5, 2 and 1 μM quercetin or Trolox, respectively.

plasmid DNA pBR 322 = assay: Protection of plasmid DNA from AAPH damage (agarose electrophoresis); format: biochemical; settings: 10 mM AAPH, 37° C., 4 h
Method: The effectiveness of the three compounds to protect DNA from AAPH damage was also determined. The plasmid DNA pBR 322 was incubated with AAPH (final concentration 10 mM) at 37° C. for 4 h with or without antioxidants (final concentrations, 0.35-45 μM), after which the samples were subjected to agarose electrophoresis (Sakihama, Y., et al. Toxicology 2002, 177, 67, incorporated herein by reference in its entirety). […] In the absence of AAPH, pBR 322 was mostly in its supercoiled (S) form (small amount of open circular, O, form was also visible, lane 1 FIG. 25). After reaction with AAPH, the DNA was transformed almost entirely into its open circular form (lane 2, FIG. 25). […] No protection was obtained for both compound 1 and quercetin below 5 μM (lanes 7-10, FIG. 25). […] Compound 3 as well as Trolox were ineffective at all concentrations used in the experiment (0.35-45 μM).
Protection of DNA from free radical damage by the antioxidant dendrimers (compounds 4, 5, and 1) was also evaluated. Plasmid DNA (pBR 322) samples, were incubated with AAPH (final concentration 10 mM) at 37° C. for 4 h with antioxidants (final concentrations, 0.35-45 μM) and subjected to agarose electrophoresis. […] The native DNA was mostly in its supercoiled (S) form (small amount of open circular, O, form was also visible, lane 1, FIG. 31). In the presence of AAPH, the DNA was transformed almost entirely into its O form (lane 2, FIG. 31). […] Negligible DNA protection was afforded by all three dendrimers at ≦2.5 μM (lanes 7-10, FIG. 31). Under similar conditions, Trolox as well as the starting materials for dendrimer synthesis were ineffective at all concentrations.

pBR 322 DNA with Cu2+ = assay: Pro-oxidant effect: oxidation of DNA with copper (II) ion; settings: 10 μM Cu2+, 37° C., 1 h
Method: The pro-oxidant effect of compounds 1, 2, and 3 was examined by oxidation of DNA with copper (II) ion. pBR 322 was incubated with 10 μM Cu^2+ at 37° C. for 1 h in the presence of compound 1, 2, or 3 (final concentrations between 0.35 and 45 μM). […] Lane 1 is native DNA, and lanes 2-10 are Cu^2+-oxidized DNA with 0, 45, 23, 11, 5, 3, 1.5, 0.7, and 0.35 μM antioxidant, respectively.
This was performed by co-incubation of DNA (pBR 322), copper (II) ion and antioxidant. […] This ultimately forms DNA-Cu(I)OOH, initiating a free radical cascade by which DNA damage occurs. pBR 322 was incubated with 10 μM Cu^2+ in the presence of antioxidants (0-45 μM) at 37° C. for 1 h and subjected to agarose electrophoresis. […] In FIG. 32, lane 1 is native DNA, and lanes 2-10 are Cu^2+ oxidized DNA with 0, 45, 23, 11, 5, 3, 1.5, 0.7, and 0.35 μM antioxidant, respectively. […] However, it should be noted that physiological concentrations of copper are less than 10-20 μM in plasma and approximately […] for the cation in cells.

O=C1O[C@H]([C@@H](O)CO)C(O)=C1O [Ascorbic acid, ascorbic acid]
# of DDPH• reduced per antioxidant molecule (1/stoichiometry) (DPPH radical assay): 1.8 | Antioxidant Capacity Relative to Trolox, DPPH (DPPH radical assay): 1 | Antioxidant Capacity Relative to Trolox, ABTS [1]: 0.90 | time to reach a plateau of ABTS•+ absorbance suppression ([1]; 14.4 μM Trolox, 11.4 μM ascorbic acid): one | IC50 ([1]; final concentration in the cuvet, read-out: concentration at which 50% inhibition of ABTS•+ was observed): ~13 µM | Slope of % decrease in absorbance at 6 min versus antioxidant concentration ([1]; linear regression, concentration in μM): 3.6 | TEAC ([1]; slope divided by that of Trolox, % decrease in A734 at 6 min, ethanol): 0.9 | Antioxidant Capacity Relative to Trolox, FRAP 5 min ([2]; 5 min): 0.91 | EC1 (concentration with ferric-TPTZ reducing ability equivalent to 1 mM FeSO4.7H2O) ([2]; 5 min): 505 µM | FRAP value relative to Fe(II) ([2]; 5 min, listed as Ascorbic Acid): 2.0 | FRAP value relative to Fe(II) ([2]; 5 min, listed as ascorbic acid): ~2 | FRAP value relative to Fe(II) ([2]; 15 min): 2.1 | FRAP value relative to Fe(II) ([2]; 30 min): 2.3 | Antioxidant Capacity Relative to Trolox, FRAP 60 min ([2]; 60 min): 1.1 | EC1 (concentration with ferric-TPTZ reducing ability equivalent to 1 mM FeSO4.7H2O) ([2]; 60 min): 395 µM | FRAP value relative to Fe(II) ([2]; 60 min): 2.5 | Slope of ΔA593 versus concentration ([2]; Reaction time 5 min): 0.0238 | Slope of ΔA593 versus concentration ([2]; Reaction time 15 min): 0.0255 | Slope of ΔA593 versus concentration ([2]; Reaction time 30 min): 0.0272 | Slope of ΔA593 versus concentration ([2]; Reaction time 60 min): 0.0305 | ARP, previously reported value [3]: 3.70 | Stoichiometry, previously reported value [3]: 0.54 | number of reduced DPPH• per antioxidant molecule, previously reported value [3]: 1.85

O=c1c(O)c(-c2ccc(O)c(O)c2)oc2cc(O)cc(O)c12 [quercetin]
IC50 (DPPH radical assay; read-out: DPPH IC50 at 120 min, Example 15): 10 µM | protection of LDL at all antioxidant concentrations (Human LDL): ineffective | DNA protection (plasmid DNA pBR 322; 5 μM antioxidant): not | DNA protection (plasmid DNA pBR 322; below 5 μM antioxidant): No protection | pro-oxidant DNA damage (pBR 322 DNA with Cu2+; 11-45 μM antioxidant): DNA damage was clearly observed | pro-oxidant effect (pBR 322 DNA with Cu2+; between 3 and 5 μM antioxidant): more pronounced pro-oxidant effect than compound 1

Source: patent US8895032B2, “Dendritic nano-antioxidants” (Central Michigan University, priority 2009, dated 2014)
